Measured values: ChEMBL document CHEMBL1152560, “Substituted 2-arylbenzothiazoles as kinase inhibitors: hit-to-lead optimization” (Bioorg Med Chem, 2009)

What was measured:
[1] = biological target: Ribosomal protein S6 kinase alpha-2 (Homo sapiens) (UniProt Q15349); test: Residual activity of RPS6KA2 at 1 uM by microplate scintillation counting
[2] = biological target: Casein kinase I isoform alpha (Homo sapiens) (UniProt P48729); test: Residual activity of CK1alpha1 at 10 uM by microplate scintillation counting
Chain of Casein kinase I isoform alpha (Homo sapiens) (P48729 2-337 limits assumed): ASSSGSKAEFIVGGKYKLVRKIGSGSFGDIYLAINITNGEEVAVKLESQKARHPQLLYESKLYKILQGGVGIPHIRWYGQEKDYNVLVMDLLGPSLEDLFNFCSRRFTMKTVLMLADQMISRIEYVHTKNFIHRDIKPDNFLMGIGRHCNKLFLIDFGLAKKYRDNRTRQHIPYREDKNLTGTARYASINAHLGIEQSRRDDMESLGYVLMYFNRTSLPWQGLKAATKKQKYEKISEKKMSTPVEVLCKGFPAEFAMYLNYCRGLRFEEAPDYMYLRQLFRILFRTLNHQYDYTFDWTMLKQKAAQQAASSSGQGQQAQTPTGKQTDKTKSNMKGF

[3] = test system: Epidermal growth factor receptor (Homo sapiens), P00533 [T790M]; test: Residual activity of EGFR T790M mutant at 1 uM by microplate scintillation counting
[4] = biological target: Serine/threonine-protein kinase Nek7 (Homo sapiens) (UniProt Q8TDX7); test: Residual activity of NEK7 at 10 uM by microplate scintillation counting
Chain of Serine/threonine-protein kinase Nek7 (Homo sapiens) (Q8TDX7 whole entry, looked up, the tested form may be a part): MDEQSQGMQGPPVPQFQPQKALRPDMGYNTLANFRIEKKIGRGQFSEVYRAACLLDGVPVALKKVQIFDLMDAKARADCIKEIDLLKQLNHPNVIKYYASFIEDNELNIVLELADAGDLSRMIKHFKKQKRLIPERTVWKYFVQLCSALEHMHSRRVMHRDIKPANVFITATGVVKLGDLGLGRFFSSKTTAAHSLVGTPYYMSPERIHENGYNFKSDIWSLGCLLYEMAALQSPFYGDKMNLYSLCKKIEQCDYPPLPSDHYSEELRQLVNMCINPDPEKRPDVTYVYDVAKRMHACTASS

[5] = biological target: T1, Discoidin domain-containing receptor 2 (Homo sapiens) (UniProt Q16832); test: Residual activity of DDR2 at 10 uM by microplate scintillation counting
T1 sequence (whole entry): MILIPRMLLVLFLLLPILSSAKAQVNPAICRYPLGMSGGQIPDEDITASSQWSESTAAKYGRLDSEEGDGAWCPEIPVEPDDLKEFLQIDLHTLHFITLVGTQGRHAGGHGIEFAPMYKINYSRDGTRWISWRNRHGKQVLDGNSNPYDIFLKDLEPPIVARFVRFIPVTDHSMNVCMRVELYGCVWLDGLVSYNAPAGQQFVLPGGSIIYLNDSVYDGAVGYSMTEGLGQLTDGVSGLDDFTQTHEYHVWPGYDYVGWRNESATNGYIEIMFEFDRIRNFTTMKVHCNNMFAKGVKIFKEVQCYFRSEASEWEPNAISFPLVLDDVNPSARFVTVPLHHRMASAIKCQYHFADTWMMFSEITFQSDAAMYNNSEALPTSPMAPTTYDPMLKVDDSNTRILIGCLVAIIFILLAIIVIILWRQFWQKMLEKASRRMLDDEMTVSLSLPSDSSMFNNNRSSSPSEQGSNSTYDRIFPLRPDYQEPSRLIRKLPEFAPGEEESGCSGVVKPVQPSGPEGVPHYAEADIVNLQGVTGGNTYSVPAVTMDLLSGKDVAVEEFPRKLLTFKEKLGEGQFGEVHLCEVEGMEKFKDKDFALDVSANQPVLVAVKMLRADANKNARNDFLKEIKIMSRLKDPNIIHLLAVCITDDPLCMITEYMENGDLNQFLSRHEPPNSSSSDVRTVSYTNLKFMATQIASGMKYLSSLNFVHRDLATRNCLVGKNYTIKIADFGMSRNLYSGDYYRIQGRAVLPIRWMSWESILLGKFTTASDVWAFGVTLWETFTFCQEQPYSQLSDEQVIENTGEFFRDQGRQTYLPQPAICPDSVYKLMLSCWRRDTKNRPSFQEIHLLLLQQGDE

[6] = biological target: Protein kinase C eta type (Homo sapiens) (UniProt P24723); test: Residual activity of PKCeta at 1 uM by microplate scintillation counting
Chain of Protein kinase C eta type (Homo sapiens) (P24723 whole entry): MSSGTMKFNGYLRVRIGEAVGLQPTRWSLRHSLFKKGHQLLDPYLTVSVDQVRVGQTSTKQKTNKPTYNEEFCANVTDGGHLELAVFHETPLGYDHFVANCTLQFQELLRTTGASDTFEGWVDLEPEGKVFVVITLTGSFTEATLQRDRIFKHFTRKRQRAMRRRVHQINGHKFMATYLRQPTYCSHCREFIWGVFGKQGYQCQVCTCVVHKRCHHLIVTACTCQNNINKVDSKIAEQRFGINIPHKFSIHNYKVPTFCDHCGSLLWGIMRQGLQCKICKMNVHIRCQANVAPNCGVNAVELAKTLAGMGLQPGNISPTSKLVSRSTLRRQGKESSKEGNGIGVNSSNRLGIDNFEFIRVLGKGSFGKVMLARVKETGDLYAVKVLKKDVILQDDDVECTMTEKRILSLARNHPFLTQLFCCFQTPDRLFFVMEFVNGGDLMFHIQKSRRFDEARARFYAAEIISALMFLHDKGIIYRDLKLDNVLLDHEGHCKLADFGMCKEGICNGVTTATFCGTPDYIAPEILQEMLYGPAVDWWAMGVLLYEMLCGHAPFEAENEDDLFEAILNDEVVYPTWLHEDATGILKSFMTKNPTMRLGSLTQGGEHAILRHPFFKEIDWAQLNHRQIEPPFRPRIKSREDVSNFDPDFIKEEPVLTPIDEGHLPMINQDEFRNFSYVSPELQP

[7] = biological target: Platelet-derived growth factor receptor alpha (Homo sapiens) (UniProt P16234); test: Residual activity of PDGFRalpha at 0.1 uM by microplate scintillation counting
Chain of Platelet-derived growth factor receptor alpha (Homo sapiens) (P16234 whole entry): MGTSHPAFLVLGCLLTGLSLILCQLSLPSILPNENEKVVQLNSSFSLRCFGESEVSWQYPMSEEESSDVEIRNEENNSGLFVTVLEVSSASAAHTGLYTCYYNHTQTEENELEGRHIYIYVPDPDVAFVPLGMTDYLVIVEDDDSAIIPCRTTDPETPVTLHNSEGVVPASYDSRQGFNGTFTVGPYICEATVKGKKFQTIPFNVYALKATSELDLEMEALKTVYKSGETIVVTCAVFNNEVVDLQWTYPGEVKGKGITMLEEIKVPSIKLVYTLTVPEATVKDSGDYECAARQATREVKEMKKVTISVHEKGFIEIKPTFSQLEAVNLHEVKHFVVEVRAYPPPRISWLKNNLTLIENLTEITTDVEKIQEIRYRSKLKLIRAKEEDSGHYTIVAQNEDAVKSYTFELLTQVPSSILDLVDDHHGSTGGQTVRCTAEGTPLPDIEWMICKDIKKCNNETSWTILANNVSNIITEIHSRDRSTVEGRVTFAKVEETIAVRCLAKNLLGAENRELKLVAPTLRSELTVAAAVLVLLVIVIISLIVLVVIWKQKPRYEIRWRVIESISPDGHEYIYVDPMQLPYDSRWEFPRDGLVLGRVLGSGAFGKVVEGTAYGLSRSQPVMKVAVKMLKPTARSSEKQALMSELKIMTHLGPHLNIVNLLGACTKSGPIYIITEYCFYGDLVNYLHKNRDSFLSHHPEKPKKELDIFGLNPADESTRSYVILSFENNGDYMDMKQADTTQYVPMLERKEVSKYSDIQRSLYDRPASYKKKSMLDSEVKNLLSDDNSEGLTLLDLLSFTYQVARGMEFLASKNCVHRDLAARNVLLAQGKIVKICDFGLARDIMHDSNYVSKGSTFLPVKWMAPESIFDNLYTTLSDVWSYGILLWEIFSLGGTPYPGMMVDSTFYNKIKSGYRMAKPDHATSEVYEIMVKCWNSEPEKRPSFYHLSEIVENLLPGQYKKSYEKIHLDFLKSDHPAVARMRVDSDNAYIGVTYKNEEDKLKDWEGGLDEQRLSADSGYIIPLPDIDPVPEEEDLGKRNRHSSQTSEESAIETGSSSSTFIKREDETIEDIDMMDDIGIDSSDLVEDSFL

[8] = biological target: Maternal embryonic leucine zipper kinase (Homo sapiens) (UniProt Q14680); test: Residual activity of MELK at 1 uM by microplate scintillation counting
Chain of Maternal embryonic leucine zipper kinase (Homo sapiens) (Q14680 whole entry, looked up): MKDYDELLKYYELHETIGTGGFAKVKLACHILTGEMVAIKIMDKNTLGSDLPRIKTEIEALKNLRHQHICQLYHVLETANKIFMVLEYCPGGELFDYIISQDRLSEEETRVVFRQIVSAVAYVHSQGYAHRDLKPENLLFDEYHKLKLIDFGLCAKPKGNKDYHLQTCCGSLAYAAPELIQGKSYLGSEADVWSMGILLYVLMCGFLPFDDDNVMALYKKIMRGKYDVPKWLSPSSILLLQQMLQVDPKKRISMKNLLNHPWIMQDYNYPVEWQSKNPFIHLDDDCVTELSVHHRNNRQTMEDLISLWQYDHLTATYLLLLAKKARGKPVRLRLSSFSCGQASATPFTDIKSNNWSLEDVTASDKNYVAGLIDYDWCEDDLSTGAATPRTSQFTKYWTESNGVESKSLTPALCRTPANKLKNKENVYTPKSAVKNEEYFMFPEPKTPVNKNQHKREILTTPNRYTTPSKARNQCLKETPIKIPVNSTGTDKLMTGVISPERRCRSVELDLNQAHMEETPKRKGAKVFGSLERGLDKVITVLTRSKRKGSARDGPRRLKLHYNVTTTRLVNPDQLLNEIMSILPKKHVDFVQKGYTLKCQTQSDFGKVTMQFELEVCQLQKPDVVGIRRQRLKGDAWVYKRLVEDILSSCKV

[9] = biological target: Mitogen-activated protein kinase 14 (Homo sapiens) (UniProt Q16539); test: Residual activity of p38alpha at 0.1 uM by microplate scintillation counting
Chain of Mitogen-activated protein kinase 14 (Homo sapiens) (Q16539 whole entry): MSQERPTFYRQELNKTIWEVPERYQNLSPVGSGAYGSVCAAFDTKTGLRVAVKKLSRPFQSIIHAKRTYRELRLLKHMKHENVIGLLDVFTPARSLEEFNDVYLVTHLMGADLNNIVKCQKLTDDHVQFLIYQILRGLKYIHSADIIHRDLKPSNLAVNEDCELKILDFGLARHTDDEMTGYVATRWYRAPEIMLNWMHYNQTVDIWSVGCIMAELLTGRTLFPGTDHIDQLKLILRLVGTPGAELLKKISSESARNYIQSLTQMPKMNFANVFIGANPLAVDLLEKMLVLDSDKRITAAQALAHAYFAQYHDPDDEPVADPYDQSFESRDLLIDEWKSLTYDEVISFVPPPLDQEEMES

[10] = test system: T2, Dual specificity mitogen-activated protein kinase kinase 6 (Homo sapiens), P52564 [S207D,T211D]; test: Residual activity of MKK6 S207D/T211D mutant at 10 uM by microplate scintillation counting
T2 sequence (whole entry): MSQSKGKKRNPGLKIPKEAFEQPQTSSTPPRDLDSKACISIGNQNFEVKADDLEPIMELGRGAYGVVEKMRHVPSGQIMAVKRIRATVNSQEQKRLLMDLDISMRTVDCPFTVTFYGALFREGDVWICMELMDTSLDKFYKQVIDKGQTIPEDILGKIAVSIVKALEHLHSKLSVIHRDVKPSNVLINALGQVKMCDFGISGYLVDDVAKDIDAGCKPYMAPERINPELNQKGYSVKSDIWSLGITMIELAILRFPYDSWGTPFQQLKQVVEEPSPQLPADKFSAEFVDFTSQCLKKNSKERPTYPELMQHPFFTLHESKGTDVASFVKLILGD

[11] = test system: Epidermal growth factor receptor (Homo sapiens), P00533 [L858R]; test: Residual activity of EGFR L858R mutant at 1 uM by microplate scintillation counting
[12] = biological target: Fibroblast growth factor receptor 1 (Homo sapiens) (UniProt P11362); test: Residual activity of wild type FGF-R1 at 1 uM by microplate scintillation counting
Chain of Fibroblast growth factor receptor 1 (Homo sapiens) (P11362 22-822 limits assumed): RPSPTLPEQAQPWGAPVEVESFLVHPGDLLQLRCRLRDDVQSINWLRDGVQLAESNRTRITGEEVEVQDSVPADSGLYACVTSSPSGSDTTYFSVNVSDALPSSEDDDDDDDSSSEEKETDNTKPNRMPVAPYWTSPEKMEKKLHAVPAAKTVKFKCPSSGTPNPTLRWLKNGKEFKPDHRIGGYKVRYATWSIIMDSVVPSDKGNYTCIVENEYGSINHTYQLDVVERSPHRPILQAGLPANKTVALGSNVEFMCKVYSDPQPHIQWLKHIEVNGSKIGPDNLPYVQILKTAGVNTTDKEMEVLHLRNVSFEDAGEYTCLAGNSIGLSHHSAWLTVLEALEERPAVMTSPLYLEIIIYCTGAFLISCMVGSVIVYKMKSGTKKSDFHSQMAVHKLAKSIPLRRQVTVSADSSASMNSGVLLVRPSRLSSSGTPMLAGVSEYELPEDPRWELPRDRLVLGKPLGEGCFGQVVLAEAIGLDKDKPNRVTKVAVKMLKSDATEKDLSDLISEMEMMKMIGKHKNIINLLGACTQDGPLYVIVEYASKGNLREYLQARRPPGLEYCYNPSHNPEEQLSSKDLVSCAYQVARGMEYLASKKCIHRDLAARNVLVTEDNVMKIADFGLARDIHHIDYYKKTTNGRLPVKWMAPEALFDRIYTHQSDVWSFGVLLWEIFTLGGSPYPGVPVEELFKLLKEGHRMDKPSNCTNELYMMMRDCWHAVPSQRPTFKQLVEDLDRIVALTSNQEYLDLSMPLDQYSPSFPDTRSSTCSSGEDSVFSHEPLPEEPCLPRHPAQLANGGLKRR

[13] = biological target: T3, Serine/threonine-protein kinase Sgk2 (Homo sapiens) (UniProt Q9HBY8); test: Residual activity of SGK2 at 10 uM by microplate scintillation counting
T3 sequence (whole entry): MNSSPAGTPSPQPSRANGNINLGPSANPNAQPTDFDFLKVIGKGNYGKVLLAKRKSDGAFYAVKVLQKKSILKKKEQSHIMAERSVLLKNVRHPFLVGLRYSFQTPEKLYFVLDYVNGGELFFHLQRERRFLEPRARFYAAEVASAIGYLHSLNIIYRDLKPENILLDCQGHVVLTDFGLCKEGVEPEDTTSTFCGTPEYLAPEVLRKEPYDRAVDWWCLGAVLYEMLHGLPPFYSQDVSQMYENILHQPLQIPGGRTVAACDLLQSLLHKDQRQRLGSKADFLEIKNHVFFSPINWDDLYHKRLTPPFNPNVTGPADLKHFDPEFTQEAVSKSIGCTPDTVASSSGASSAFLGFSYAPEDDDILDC

[14] = biological target: T4, NUAK family SNF1-like kinase 2 (Homo sapiens) (UniProt Q9H093); test: Residual activity of SNARK at 10 uM by microplate scintillation counting
T4 sequence (whole entry): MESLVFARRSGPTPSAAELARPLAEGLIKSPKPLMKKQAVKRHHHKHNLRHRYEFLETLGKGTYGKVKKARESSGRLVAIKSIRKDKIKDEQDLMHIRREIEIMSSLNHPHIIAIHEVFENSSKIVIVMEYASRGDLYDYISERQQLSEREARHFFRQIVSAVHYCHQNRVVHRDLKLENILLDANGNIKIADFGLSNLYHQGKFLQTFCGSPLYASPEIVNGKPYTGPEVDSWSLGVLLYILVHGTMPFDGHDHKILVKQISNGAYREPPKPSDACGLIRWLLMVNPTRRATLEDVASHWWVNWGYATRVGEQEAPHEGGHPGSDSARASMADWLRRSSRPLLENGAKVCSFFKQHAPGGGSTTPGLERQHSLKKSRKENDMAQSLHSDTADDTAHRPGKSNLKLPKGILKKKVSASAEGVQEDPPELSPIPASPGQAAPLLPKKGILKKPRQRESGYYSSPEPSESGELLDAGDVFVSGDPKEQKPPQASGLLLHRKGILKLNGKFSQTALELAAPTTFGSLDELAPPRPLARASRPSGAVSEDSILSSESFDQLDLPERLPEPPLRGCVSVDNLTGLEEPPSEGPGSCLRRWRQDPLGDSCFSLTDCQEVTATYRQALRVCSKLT

Chain of Ribosomal protein S6 kinase alpha-2 (Homo sapiens) (Q15349 whole entry, canonical isoform): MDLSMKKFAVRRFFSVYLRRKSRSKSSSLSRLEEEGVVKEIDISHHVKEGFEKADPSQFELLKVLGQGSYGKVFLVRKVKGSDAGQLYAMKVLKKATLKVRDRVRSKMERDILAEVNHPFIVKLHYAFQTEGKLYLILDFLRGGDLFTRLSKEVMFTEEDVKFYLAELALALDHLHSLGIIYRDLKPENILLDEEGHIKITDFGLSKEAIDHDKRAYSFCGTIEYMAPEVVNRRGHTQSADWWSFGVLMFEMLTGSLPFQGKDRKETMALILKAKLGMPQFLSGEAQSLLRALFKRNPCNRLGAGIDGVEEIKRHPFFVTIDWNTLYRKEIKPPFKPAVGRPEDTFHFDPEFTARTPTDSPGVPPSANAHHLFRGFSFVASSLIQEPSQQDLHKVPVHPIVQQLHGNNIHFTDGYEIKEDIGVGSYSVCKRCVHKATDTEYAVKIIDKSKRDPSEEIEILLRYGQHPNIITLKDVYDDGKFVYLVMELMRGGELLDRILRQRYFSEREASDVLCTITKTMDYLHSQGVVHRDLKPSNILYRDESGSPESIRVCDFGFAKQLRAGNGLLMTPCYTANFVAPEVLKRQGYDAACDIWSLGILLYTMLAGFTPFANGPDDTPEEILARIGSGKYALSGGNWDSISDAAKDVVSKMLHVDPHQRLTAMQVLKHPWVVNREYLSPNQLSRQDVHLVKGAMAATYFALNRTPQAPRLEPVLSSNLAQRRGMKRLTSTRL

Row | residual activity [1] [%] | residual activity [2] [%] | residual activity [3] [%] | residual activity [4] [%] | residual activity [5] [%] | residual activity [6] [%] | residual activity [7] [%] | residual activity [8] [%] | residual activity [9] [%] | residual activity [10] [%] | residual activity [11] [%] | residual activity [12] [%] | residual activity [13] [%] | residual activity [14] [%] | Structure (SMILES)
1 | 99 | 139 | 85 | 224 | 42 | 122 | 86 | 78 | 100 | 148 | 72 | 126 | 88 | 82 | COc1cc2c(Oc3ccc(-c4nc5ccccc5s4)cc3)ncnc2cc1OCCCN1CCCC1
2 | 88 | 155 | 88 | 254 | 25 | 92 | 86 | 106 | 93 | 185 | 63 | 123 | 101 | 92 | COc1cc2c(Oc3ccc(-c4nc5ccccc5s4)cc3)ncnc2cc1OCCCN1CCN(C)CC1
3 | 99 | 144 | 88 | 239 | 30 | 97 | 94 | 68 | 101 | 164 | 80 | 115 | 111 | 62 | COc1cc2c(Oc3ccc(-c4nc5ccccc5s4)cc3F)ncnc2cc1OCCCN1CCN(C)CC1
